This passage reports enrich.exp.med, enrich.exp.med.lin and enrich.exp.med.log2 results from PMC10176470, “Engaging a Non-catalytic Cysteine Residue Drives Potent and Selective Inhibition of Caspase-6” (Journal of the American Chemical Society, 2023).

Assay in all cases: SILAC proteomics / in-gel fluorescence, competition of probe 13-t labeling by 3a
Test [1] deals with proteins of HEK293T cells transiently overexpressing caspase-6 (Homo sapiens, UniProt P27708).
For test [2], the target named is proteins of HEK293T cells transiently overexpressing caspase-6 (Homo sapiens, UniProt P09211).
In test [3] the target is proteins of HEK293T cells transiently overexpressing caspase-6 (Homo sapiens, UniProt Q14974). The settings on record: Comp; protein KPNB1 Q14974.
Test [4] addresses proteins of HEK293T cells transiently overexpressing caspase-6 (Homo sapiens, UniProt Q15029). The settings on record: Comp; protein EFTUD2 Q15029.
For test [5], the target named is proteins of HEK293T cells transiently overexpressing caspase-6 (Homo sapiens, UniProt P52272). Conditions: Comp; protein HNRNPM P52272.
For test [6], the target named is proteins of HEK293T cells transiently overexpressing caspase-6 (Homo sapiens, UniProt P42704). Conditions: Comp; protein LRPPRC P42704.
Test [7] has as its target proteins of HEK293T cells transiently overexpressing caspase-6 (Homo sapiens, UniProt P15880). The settings on record: Comp; protein RPS2 P15880.
The target in test [8] is proteins of HEK293T cells transiently overexpressing caspase-6 (Homo sapiens, UniProt P12956). Conditions: Comp; protein XRCC6 P12956.
Test [9] deals with T1, proteins of HEK293T cells transiently overexpressing caspase-6 (Homo sapiens, UniProt Q9BQG0).
T1 sequence (Q9BQG0 1-1328): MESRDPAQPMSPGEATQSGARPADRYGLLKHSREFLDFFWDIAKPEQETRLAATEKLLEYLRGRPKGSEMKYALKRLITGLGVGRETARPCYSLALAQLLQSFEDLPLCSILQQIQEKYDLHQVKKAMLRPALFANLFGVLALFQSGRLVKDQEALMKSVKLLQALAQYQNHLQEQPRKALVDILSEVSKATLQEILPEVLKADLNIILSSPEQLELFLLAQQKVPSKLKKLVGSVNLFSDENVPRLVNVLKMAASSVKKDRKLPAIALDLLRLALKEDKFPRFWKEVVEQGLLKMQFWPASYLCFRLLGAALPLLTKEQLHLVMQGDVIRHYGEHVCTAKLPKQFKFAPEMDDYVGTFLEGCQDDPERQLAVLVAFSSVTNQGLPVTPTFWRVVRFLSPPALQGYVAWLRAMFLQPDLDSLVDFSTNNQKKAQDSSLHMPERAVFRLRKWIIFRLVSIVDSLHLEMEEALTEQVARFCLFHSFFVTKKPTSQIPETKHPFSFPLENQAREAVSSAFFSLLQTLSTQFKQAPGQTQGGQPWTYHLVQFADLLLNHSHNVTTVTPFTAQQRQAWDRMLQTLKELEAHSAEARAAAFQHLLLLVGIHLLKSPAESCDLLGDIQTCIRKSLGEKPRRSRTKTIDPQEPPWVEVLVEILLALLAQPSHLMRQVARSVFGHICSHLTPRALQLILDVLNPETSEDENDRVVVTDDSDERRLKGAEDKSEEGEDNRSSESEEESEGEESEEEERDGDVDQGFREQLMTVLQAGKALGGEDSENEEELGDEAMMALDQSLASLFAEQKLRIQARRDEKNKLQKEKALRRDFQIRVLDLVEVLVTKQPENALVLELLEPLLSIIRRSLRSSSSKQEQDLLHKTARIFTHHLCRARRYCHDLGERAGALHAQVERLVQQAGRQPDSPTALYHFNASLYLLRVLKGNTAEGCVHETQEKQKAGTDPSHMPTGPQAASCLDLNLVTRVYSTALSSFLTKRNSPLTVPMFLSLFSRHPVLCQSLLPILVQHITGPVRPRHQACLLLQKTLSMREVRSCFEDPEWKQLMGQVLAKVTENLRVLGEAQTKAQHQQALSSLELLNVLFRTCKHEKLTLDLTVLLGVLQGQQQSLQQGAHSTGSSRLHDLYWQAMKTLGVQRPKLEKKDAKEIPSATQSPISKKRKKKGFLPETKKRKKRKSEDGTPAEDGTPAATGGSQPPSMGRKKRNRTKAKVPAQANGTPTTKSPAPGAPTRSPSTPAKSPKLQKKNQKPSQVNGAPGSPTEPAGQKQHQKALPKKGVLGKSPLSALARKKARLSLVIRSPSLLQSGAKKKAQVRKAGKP
The settings on record: Comp; protein MYBBP1A Q9BQG0.

Test [10] concerns the target proteins of HEK293T cells transiently overexpressing caspase-6 (Homo sapiens, UniProt P12268).
For test [11], the target named is proteins of HEK293T cells transiently overexpressing caspase-6 (Homo sapiens, UniProt Q13347).
The target of test [12] is proteins of HEK293T cells transiently overexpressing caspase-6 (Homo sapiens, UniProt P27348). The settings on record: Comp; protein YWHAQ P27348.
The mark [13] stands for this setting: protein CAD (P27708), Exp Comp, analysis C6, p 0.5000, 2 peptides.
Setting [14] is: protein GSTP1 (P09211), Exp Comp, analysis C6, p 0.5000, 2 peptides.
Setting [15] is: protein IMPDH2 (P12268), Exp Comp, analysis C6, p 0.0078, 8 peptides.
[16] abbreviates: protein EIF3I (Q13347), Exp Comp, analysis C6, p 0.0625, 5 peptides.

proteins of HEK293T cells transiently overexpressing caspase-6 (Homo sapiens, UniProt Q13347), sequence (Q13347 whole entry): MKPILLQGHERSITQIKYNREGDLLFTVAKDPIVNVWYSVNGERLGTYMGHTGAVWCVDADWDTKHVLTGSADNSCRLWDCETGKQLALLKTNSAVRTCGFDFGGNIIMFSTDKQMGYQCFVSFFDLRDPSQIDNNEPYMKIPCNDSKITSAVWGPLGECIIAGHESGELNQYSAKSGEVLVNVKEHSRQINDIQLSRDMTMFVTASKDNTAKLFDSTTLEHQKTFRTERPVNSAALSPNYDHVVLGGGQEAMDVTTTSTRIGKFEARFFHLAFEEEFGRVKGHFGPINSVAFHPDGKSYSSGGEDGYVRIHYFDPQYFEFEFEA
proteins of HEK293T cells transiently overexpressing caspase-6 (Homo sapiens, UniProt P09211), sequence (P09211 whole entry): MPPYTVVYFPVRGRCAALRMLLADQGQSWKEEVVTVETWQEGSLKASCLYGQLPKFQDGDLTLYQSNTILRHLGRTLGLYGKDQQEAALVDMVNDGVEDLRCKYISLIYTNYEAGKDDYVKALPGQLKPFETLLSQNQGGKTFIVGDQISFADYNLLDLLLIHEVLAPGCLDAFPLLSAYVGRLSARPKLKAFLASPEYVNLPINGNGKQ
proteins of HEK293T cells transiently overexpressing caspase-6 (Homo sapiens, UniProt P27708), sequence (P27708 whole entry): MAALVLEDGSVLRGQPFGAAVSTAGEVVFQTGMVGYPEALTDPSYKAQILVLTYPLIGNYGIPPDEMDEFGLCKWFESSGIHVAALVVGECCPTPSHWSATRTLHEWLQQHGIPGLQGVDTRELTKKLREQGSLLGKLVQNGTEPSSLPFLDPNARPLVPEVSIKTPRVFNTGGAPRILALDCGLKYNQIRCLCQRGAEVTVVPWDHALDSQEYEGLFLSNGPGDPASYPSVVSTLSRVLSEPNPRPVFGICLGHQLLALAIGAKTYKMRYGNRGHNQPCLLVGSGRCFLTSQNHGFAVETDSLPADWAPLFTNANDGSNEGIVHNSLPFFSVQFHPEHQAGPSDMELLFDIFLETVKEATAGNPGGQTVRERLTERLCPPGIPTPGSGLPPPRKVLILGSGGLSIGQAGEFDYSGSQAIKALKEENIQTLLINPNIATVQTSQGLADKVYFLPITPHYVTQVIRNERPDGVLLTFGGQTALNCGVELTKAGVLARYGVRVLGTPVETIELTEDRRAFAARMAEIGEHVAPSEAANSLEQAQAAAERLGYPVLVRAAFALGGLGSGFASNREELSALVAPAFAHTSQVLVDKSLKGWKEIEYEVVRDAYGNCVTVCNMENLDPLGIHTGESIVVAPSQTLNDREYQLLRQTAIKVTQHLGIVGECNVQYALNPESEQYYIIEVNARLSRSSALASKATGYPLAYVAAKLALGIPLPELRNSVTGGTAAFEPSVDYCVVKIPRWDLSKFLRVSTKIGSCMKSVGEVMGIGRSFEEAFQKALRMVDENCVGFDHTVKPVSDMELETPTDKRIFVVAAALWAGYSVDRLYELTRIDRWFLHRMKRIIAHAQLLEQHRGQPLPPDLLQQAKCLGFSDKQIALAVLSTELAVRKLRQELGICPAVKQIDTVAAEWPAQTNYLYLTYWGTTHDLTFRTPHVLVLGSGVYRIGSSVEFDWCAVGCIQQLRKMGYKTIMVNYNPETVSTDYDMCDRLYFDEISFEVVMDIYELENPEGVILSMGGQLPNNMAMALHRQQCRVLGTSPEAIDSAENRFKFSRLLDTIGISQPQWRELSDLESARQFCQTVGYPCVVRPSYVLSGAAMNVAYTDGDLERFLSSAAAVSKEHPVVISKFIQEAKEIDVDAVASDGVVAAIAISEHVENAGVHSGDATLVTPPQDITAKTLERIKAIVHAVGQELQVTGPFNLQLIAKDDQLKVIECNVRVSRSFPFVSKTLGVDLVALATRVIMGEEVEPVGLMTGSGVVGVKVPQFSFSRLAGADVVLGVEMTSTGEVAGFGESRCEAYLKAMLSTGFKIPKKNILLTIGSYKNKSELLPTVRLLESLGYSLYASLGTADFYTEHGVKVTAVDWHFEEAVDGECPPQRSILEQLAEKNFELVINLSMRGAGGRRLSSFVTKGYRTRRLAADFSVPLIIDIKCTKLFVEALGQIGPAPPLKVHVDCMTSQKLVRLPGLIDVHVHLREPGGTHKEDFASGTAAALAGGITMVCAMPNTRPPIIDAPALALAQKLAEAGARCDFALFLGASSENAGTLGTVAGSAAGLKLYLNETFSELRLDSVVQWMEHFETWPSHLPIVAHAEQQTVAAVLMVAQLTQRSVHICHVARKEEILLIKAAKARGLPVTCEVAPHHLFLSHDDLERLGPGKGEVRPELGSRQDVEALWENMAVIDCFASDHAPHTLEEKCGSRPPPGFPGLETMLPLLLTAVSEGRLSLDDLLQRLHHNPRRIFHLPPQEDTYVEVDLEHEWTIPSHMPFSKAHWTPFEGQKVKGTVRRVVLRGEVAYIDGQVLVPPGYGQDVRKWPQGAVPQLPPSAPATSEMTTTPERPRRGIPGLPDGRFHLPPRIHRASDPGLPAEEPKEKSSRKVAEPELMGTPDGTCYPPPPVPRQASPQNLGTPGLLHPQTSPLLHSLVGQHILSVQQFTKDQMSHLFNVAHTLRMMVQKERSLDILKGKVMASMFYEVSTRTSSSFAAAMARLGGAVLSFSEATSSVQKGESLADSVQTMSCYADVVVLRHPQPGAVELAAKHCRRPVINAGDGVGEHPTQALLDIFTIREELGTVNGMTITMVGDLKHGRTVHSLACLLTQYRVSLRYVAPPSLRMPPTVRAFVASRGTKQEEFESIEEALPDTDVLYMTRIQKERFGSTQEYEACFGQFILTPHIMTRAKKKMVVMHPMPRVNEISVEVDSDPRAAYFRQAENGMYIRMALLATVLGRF
proteins of HEK293T cells transiently overexpressing caspase-6 (Homo sapiens, UniProt P27348), sequence (P27348 whole entry): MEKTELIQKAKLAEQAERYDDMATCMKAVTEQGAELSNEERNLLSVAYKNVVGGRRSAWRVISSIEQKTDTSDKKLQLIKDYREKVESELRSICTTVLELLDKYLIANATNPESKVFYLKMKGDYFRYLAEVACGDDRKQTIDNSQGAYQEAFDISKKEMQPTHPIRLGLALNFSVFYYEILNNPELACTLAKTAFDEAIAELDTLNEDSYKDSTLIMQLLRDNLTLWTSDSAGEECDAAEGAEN
proteins of HEK293T cells transiently overexpressing caspase-6 (Homo sapiens, UniProt Q15029), sequence (Q15029 whole entry): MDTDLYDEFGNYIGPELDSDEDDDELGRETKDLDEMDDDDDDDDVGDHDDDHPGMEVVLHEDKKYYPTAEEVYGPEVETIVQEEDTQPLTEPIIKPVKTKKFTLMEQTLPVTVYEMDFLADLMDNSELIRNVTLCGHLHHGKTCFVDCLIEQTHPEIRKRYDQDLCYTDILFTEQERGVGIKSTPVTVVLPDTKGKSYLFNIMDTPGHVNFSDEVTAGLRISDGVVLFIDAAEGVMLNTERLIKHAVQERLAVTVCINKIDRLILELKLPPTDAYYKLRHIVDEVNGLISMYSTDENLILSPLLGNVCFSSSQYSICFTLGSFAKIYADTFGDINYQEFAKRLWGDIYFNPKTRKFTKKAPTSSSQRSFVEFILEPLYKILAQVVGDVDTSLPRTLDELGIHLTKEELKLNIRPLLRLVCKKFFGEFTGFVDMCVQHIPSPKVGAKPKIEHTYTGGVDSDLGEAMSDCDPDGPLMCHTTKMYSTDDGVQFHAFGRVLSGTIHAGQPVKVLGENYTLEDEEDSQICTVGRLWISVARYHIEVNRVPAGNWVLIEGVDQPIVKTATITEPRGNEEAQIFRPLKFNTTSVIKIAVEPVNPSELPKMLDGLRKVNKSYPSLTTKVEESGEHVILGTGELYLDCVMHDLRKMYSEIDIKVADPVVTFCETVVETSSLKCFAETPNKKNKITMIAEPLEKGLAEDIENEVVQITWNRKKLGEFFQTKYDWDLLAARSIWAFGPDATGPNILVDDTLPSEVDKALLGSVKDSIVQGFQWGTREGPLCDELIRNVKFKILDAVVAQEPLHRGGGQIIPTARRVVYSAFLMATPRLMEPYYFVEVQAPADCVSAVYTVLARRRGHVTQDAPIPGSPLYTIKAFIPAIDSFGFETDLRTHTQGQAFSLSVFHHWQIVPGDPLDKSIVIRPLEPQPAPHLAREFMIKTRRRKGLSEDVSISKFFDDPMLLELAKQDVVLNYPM
proteins of HEK293T cells transiently overexpressing caspase-6 (Homo sapiens, UniProt Q14974), sequence (Q14974 whole entry): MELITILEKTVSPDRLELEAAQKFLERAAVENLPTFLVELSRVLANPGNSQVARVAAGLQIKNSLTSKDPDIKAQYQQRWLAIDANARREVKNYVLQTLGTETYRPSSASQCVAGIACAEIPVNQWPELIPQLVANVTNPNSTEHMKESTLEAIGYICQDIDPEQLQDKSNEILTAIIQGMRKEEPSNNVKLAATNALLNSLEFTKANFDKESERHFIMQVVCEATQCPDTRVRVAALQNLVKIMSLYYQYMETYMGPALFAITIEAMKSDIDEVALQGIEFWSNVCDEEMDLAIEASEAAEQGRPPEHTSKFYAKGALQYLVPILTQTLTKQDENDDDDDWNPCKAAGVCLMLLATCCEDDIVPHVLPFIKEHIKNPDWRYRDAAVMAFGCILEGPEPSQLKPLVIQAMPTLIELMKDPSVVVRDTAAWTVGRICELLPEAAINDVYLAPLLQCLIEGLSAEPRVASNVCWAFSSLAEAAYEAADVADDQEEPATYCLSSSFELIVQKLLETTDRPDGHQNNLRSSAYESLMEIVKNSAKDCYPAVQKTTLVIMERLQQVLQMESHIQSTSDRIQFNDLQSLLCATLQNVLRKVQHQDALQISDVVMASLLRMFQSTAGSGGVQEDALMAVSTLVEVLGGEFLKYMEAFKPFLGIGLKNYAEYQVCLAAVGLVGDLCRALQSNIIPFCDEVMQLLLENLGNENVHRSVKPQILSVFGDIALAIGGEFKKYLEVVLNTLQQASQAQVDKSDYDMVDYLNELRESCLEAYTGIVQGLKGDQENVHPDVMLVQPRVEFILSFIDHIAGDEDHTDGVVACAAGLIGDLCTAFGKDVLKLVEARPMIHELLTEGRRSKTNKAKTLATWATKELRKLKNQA

As to `C=CS(=O)(=O)N1C[C@H](C(=O)Nc2ccc(OC(F)(F)F)cc2)C[C@@H](c2ccccc2)C1` [3a], the enrich.exp.med is recorded as 1.9642 in test [1] (Comp, protein CAD P27708); 0.9589 in [2] (Comp, protein GSTP1 P09211); 0.6036 in test [3]; 0.5983 in [4]; 0.6442 in test [5]; 0.6677 in test [6]. Moreover, the enrich.exp.med in [7] is listed as 0.7281; in test [8], 0.7902; in [9], 0.8156; in test [10] (Comp, protein IMPDH2 P12268), 0.9888; in [11] (Comp, protein EIF3I Q13347), 1.022; in test [12], 0.7747. Further, the enrich.exp.med.lin was found to be 3.902 in [1] (setting [13]), 1.9438 in test [2] (setting [14]), 1.985 in [10] (setting [15]) and 2.03 in test [11] (setting [16]). Further, the enrich.exp.med.log2 in [1] (setting [13]) was determined as 1.9642; in [2] (setting [14]), 0.9589; in [10] (setting [15]), 0.9888; in test [11] (setting [16]) it was 1.022.
